Legend:
[1] = biological target: T1, 2-Hydroxyacid oxidase 2 (Rattus norvegicus, UniProt Q07523); test: Inhibition of rat LCHAO using 2-hydroxyoctanoate as substrate incubated for 30 mins by Amplex Red reagent based fluorometric analysis; format: toxicity
T1 sequence (Q07523 whole entry): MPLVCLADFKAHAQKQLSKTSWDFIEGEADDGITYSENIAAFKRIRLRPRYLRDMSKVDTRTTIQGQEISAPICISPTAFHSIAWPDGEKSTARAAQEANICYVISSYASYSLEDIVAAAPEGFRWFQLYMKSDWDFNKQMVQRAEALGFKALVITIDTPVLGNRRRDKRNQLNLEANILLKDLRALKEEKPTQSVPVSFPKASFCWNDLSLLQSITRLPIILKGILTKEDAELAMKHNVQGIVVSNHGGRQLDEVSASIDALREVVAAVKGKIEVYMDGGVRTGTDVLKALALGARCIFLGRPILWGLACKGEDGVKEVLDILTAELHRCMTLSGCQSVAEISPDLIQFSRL

[2] = biological target: T1, 2-Hydroxyacid oxidase 2; test: Binding affinity to rat LCHAO by Amplex Red reagent based fluorescence analysis; format: toxicity

Molecule `N#CC(C#N)=C1C=C(/C=C/c2ccc(O)c(C(=O)O)c2)Oc2ccccc21` has an IC50 [1] of over 500 µM and a Kd [2] of over 1000 µM.
`O=C(O)c1cc(/C=C/C2=CC(=C3C(=O)c4ccccc4C3=O)c3ccccc3O2)ccc1O` was tested, and the IC50 [1] was 248 µM and the Kd [2] was 462 µM.
For `CC1(C)C(/C=C/c2ccc(O)c(C(=O)O)c2)=[N+](CCC(=O)O)c2ccc3ccccc3c21`, the IC50 [1] was 36.7 µM and the Kd [2] was 3.2 µM.
